Reference: patent US20230085307A1, “PYRIDAZINONE COMPOUND AND HERBICIDE” (NISSAN CHEMICAL CORPORATION, priority 2019, published 2023)

How the values were obtained:
Italian ryegrass = experiment: Test Example 5: herbicidal effect by foliage application, plastic box (Table 20, symbol K); assay type: in vivo, Italian ryegrass (Lolium multiflorum); details: for K: Italian ryegrass, herbicidal effect grade: three weeks after application
In short: (§1)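 Foliar spray test: emulsion formulation diluted in water to a set application rate, sprayed onto 14-day-old plants raised in diluvial soil at 25° C to 30° C under glass. Both herbicidal effect and crop effect rated visually three weeks later.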

blackgrass = experiment: Test Example 5: herbicidal effect by foliage application, plastic box (Table 20, symbol J); assay type: in vivo, blackgrass (Alopecurus myosuroides); details: for J: blackgrass, herbicidal effect grade: three weeks after application
In short: as §1

rice flat sedge = experiment: Test Example 3: herbicidal effect by foliage application, Wagner pot (Table 18, symbol E); assay type: in vivo, rice flat sedge (Cyperus iria); details: for herbicidal effect on E: rice flat sedge: amount of applied herbicide 320 g/ha
In short: (§2)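 Plants were sown in alluvial soil held under 0.1–0.5 cm standing water and grown 14 days in a greenhouse at 25–30 °C. An emulsifiable formulation, water-diluted to the set dose, was then sprayed onto the foliage, and effects were scored three weeks later using previously defined criteria.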

southern crabgrass = experiment: Test Example 5: herbicidal effect by foliage application, plastic box (Table 20, symbol F); assay type: in vivo, southern crabgrass (Digitaria ciliaris); details: for F: southern crabgrass, herbicidal effect grade: three weeks after application
In short: as §1

redroot pigweed = experiment: Test Example 5: herbicidal effect by foliage application, plastic box (Table 20, symbol N); assay type: in vivo, redroot pigweed (Amaranthus retroflexus); details: for N: redroot pigweed, herbicidal effect grade: three weeks after application
In short: as §1

chickweed = experiment: Test Example 5: herbicidal effect by foliage application, plastic box (Table 20, symbol P); assay type: in vivo, common chickweed (Stellaria media); details: for P: chickweed, herbicidal effect grade: three weeks after application
In short: as §1

Chinese sprangletop = experiment: Test Example 3: herbicidal effect by foliage application, Wagner pot (Table 18, symbol D); assay type: in vivo, chinese sprangletop (Leptochloa chinensis); details: for herbicidal effect on D: Chinese sprangletop: amount of applied herbicide 320 g/ha
In short: as §2

oval-leafed pondweed = experiment: Test Example 1: herbicidal activity, application before weed generation under submerged conditions (Table 16, symbol C); assay type: in vivo, oval-leafed pondweed (Monochoria vaginalis); details: for Herbicidal effect, C: oval-leafed pondweed: amount of applied herbicide 320 g/ha
In short: (§3)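 Submerged Wagner pots (alluvial soil, 4 cm water) sown with weed seeds and planted with 2.5-leaf rice seedlings; emulsifiable concentrate diluted in water applied to water surface on sowing day. Held in greenhouse at 25-30 °C; injury scored 0-5 by herbicidal rate after three weeks.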

green foxtail = experiment: Test Example 5: herbicidal effect by foliage application, plastic box (Table 20, symbol G); assay type: in vivo, green foxtail (Setaria viridis); details: for G: green foxtail, herbicidal effect grade: three weeks after application
In short: as §1

late watergrass = experiment: Test Example 1: herbicidal activity, application before weed generation under submerged conditions (Table 16, symbol A); assay type: in vivo, late watergrass (Echinochloa oryzicola); details: for Herbicidal effect, A: late watergrass: amount of applied herbicide 320 g/ha
In short: as §3

wild oat = experiment: Test Example 5: herbicidal effect by foliage application, plastic box (Table 20, symbol I); assay type: in vivo, wild oat (Avena fatua); details: for I: wild oat, herbicidal effect grade: three weeks after application
In short: as §1

velvetleaf = experiment: Test Example 5: herbicidal effect by foliage application, plastic box (Table 20, symbol M); assay type: in vivo, velvetleaf (Abutilon theophrasti); details: for M: velvetleaf, herbicidal effect grade: three weeks after application
In short: as §1

barnyard grass [1] = experiment: Test Example 3: herbicidal effect by foliage application, Wagner pot (Table 18, symbol H); assay type: in vivo, barnyard grass (Echinochloa crus-galli); details: for herbicidal effect on H: barnyard grass: amount of applied herbicide 320 g/ha
In short: as §2

lambsquarters = experiment: Test Example 5: herbicidal effect by foliage application, plastic box (Table 20, symbol O); assay type: in vivo, lambsquarters (Chenopodium album); details: for O: lambsquarters, herbicidal effect grade: three weeks after application
In short: as §1

persian speedwell = experiment: Test Example 5: herbicidal effect by foliage application, plastic box (Table 20, symbol R); assay type: in vivo, Persian speedwell (Veronica persica); details: for R: persian speedwell, herbicidal effect grade: three weeks after application
In short: as §1

windgrass = experiment: Test Example 5: herbicidal effect by foliage application, plastic box (Table 20, symbol L); assay type: in vivo, windgrass (Apera spica-venti); details: for L: windgrass, herbicidal effect grade: three weeks after application
In short: as §1

barnyard grass [2] = experiment: Test Example 5: herbicidal effect by foliage application, plastic box (Table 20, symbol H); assay type: in vivo, barnyard grass (Echinochloa crus-galli); details: for H: barnyard grass, herbicidal effect grade: three weeks after application
In short: as §1

Japanese bulrush = experiment: Test Example 1: herbicidal activity, application before weed generation under submerged conditions (Table 16, symbol B); assay type: in vivo, Japanese bulrush (Schoenoplectus juncoides); details: for Herbicidal effect, B: Japanese bulrush: amount of applied herbicide 320 g/ha
In short: as §3

[3] = foliage application, AAH 320 g/ha, evaluated three weeks after application
[4] = 320 g/ha, foliage application after 14-day growth, evaluated three weeks after application

SMILES | herbicidal effect on E: rice flat sedge (rice flat sedge) | herbicidal effect on D: Chinese sprangletop (Chinese sprangletop) | herbicidal effect on H: barnyard grass (barnyard grass [1]) | K: Italian ryegrass, herbicidal effect grade (Italian ryegrass; foliage application, 320 g/ha) | J: blackgrass, herbicidal effect grade (blackgrass; foliage application, 320 g/ha) | F: southern crabgrass, herbicidal effect grade (southern crabgrass; foliage application, 320 g/ha) | N: redroot pigweed, herbicidal effect grade (redroot pigweed; foliage application, 320 g/ha) | P: chickweed, herbicidal effect grade (chickweed; foliage application, 320 g/ha) | Herbicidal effect, C: oval-leafed pondweed (oval-leafed pondweed) | G: green foxtail, herbicidal effect grade (green foxtail; foliage application, 320 g/ha) | Herbicidal effect, A: late watergrass (late watergrass) | I: wild oat, herbicidal effect grade (wild oat; foliage application, 320 g/ha) | M: velvetleaf, herbicidal effect grade (velvetleaf; foliage application, 320 g/ha) | O: lambsquarters, herbicidal effect grade (lambsquarters; foliage application, 320 g/ha) | R: persian speedwell, herbicidal effect grade (persian speedwell; foliage application, 320 g/ha) | L: windgrass, herbicidal effect grade (windgrass; foliage application, 320 g/ha) | H: barnyard grass, herbicidal effect grade (barnyard grass [2]; foliage application, 320 g/ha) | Herbicidal effect, B: Japanese bulrush (Japanese bulrush) | further results
Cc1nn(C)c(=O)c(-c2c(-c3ccc(OC(F)F)cc3)sc3ccc(F)cc23)c1OCC(F)(F)F [2-302] | 3 (Herbicidal rate of 40% or more and less than 70%) | 0 (Herbicidal rate of 5% or less (almost no effect)) | 3 (Herbicidal rate of 40% or more and less than 70%) | – | – | – | – | – | – | – | – | – | – | – | – | – | – | – | K: Italian ryegrass, herbicidal effect (criteria 0-5) (Italian ryegrass; [3]): 0 (Herbicidal rate of 5% or less (almost no effect)); J: blackgrass, herbicidal effect (criteria 0-5) (blackgrass; [3]): 0 (Herbicidal rate of 5% or less (almost no effect)); F: southern crabgrass, herbicidal effect (criteria 0-5) (southern crabgrass; [3]): 0 (Herbicidal rate of 5% or less (almost no effect)); N: redroot pigweed, herbicidal effect (criteria 0-5) (redroot pigweed; [3]): 3 (Herbicidal rate of 40% or more and less than 70%); P: chickweed, herbicidal effect (criteria 0-5) (chickweed; [3]): 4 (Herbicidal rate of 70% or more and less than 90%); Herbicidal effect on C: oval-leafed pondweed (grade 0-5) (oval-leafed pondweed; 320 g/ha applied herbicide): 0 (Herbicidal rate of 5% or less (almost no effect)); G: green foxtail, herbicidal effect (criteria 0-5) (green foxtail; [3]): 0 (Herbicidal rate of 5% or less (almost no effect)); Herbicidal effect on A: late watergrass (grade 0-5) (late watergrass; 320 g/ha applied herbicide): 3 (Herbicidal rate of 40% or more and less than 70%); I: wild oat, herbicidal effect (criteria 0-5) (wild oat; [3]): 0 (Herbicidal rate of 5% or less (almost no effect)); M: velvetleaf, herbicidal effect (criteria 0-5) (velvetleaf; [3]): 0 (Herbicidal rate of 5% or less (almost no effect)); O: lambsquarters, herbicidal effect (criteria 0-5) (lambsquarters; [3]): 1 (Herbicidal rate of 5% or more and less than 20%); R: persian speedwell, herbicidal effect (criteria 0-5) (persian speedwell; [3]): 1 (Herbicidal rate of 5% or more and less than 20%); L: windgrass, herbicidal effect (criteria 0-5) (windgrass; [3]): 0 (Herbicidal rate of 5% or less (almost no effect)); H: barnyard grass, herbicidal effect (criteria 0-5) (barnyard grass [2]; [3]): 0 (Herbicidal rate of 5% or less (almost no effect)); Herbicidal effect on B: Japanese bulrush (grade 0-5) (Japanese bulrush; 320 g/ha applied herbicide): 0 (Herbicidal rate of 5% or less (almost no effect))
COc1ccccc1-c1sc2cc(F)ccc2c1-c1c(OC(=O)SC(C)(C)C)c(C)nn(C)c1=O [3-026] | 2 (Herbicidal rate of 20% or more and less than 40%) | 0 (Herbicidal rate of 5% or less (almost no effect)) | 4 (Herbicidal rate of 70% or more and less than 90%) | 0 (Herbicidal rate of 5% or less (almost no effect)) | 0 (Herbicidal rate of 5% or less (almost no effect)) | 0 (Herbicidal rate of 5% or less (almost no effect)) | 5 (Herbicidal rate of 90% or more (almost completely withered)) | 0 (Herbicidal rate of 5% or less (almost no effect)) | 3 (Herbicidal rate of 40% or more and less than 70%) | 0 (Herbicidal rate of 5% or less (almost no effect)) | 2 (Herbicidal rate of 20% or more and less than 40%) | 0 (Herbicidal rate of 5% or less (almost no effect)) | 0 (Herbicidal rate of 5% or less (almost no effect)) | 1 (Herbicidal rate of 5% or more and less than 20%) | 0 (Herbicidal rate of 5% or less (almost no effect)) | 0 (Herbicidal rate of 5% or less (almost no effect)) | 0 (Herbicidal rate of 5% or less (almost no effect)) | 0 (Herbicidal rate of 5% or less (almost no effect)) | –
COc1ccccc1-c1sc2cc(F)ccc2c1-c1c(OC(=O)N2CCOCC2)c(C)nn(C)c1=O [3-025] | 2 (Herbicidal rate of 20% or more and less than 40%) | 0 (Herbicidal rate of 5% or less (almost no effect)) | 3 (Herbicidal rate of 40% or more and less than 70%) | 0 (Herbicidal rate of 5% or less (almost no effect)) | 0 (Herbicidal rate of 5% or less (almost no effect)) | 0 (Herbicidal rate of 5% or less (almost no effect)) | 1 (Herbicidal rate of 5% or more and less than 20%) | 3 (Herbicidal rate of 40% or more and less than 70%) | 3 (Herbicidal rate of 40% or more and less than 70%) | 0 (Herbicidal rate of 5% or less (almost no effect)) | 0 (Herbicidal rate of 5% or less (almost no effect)) | 0 (Herbicidal rate of 5% or less (almost no effect)) | 0 (Herbicidal rate of 5% or less (almost no effect)) | 0 (Herbicidal rate of 5% or less (almost no effect)) | 0 (Herbicidal rate of 5% or less (almost no effect)) | 0 (Herbicidal rate of 5% or less (almost no effect)) | 0 (Herbicidal rate of 5% or less (almost no effect)) | 0 (Herbicidal rate of 5% or less (almost no effect)) | –
COc1ccc(-c2sc3c(F)cccc3c2-c2c(O)c(C)nn(C)c2=O)cc1OC [4-013] | – | – | – | – | – | – | – | – | 3 (Herbicidal rate of 40% or more and less than 70%) | – | 3 (Herbicidal rate of 40% or more and less than 70%) | – | – | – | – | – | – | 0 (Herbicidal rate of 5% or less (almost no effect)) | herbicidal effect on K: Italian ryegrass (evaluation grade 0-5) (Italian ryegrass; [4]): 4 (Herbicidal rate of 70% or more and less than 90%); herbicidal effect on J: blackgrass (evaluation grade 0-5) (blackgrass; [4]): 3 (Herbicidal rate of 40% or more and less than 70%); herbicidal effect on rice flat sedge (E) (rice flat sedge; 320 g/ha): 4 (Herbicidal rate of 70% or more and less than 90%); herbicidal effect on F: southern crabgrass (evaluation grade 0-5) (southern crabgrass; [4]): 1 (Herbicidal rate of 5% or more and less than 20%); herbicidal effect on N: redroot pigweed (evaluation grade 0-5) (redroot pigweed; [4]): 0 (Herbicidal rate of 5% or less (almost no effect)); herbicidal effect on P: chickweed (evaluation grade 0-5) (chickweed; [4]): 5 (Herbicidal rate of 90% or more (almost completely withered)); herbicidal effect on Chinese sprangletop (D) (Chinese sprangletop; 320 g/ha): 3 (Herbicidal rate of 40% or more and less than 70%); herbicidal effect on G: green foxtail (evaluation grade 0-5) (green foxtail; [4]): 5 (Herbicidal rate of 90% or more (almost completely withered)); herbicidal effect on I: wild oat (evaluation grade 0-5) (wild oat; [4]): 0 (Herbicidal rate of 5% or less (almost no effect)); herbicidal effect on M: velvetleaf (evaluation grade 0-5) (velvetleaf; [4]): 3 (Herbicidal rate of 40% or more and less than 70%); herbicidal effect on barnyard grass (H) (barnyard grass [1]; 320 g/ha): 3 (Herbicidal rate of 40% or more and less than 70%); herbicidal effect on O: lambsquarters (evaluation grade 0-5) (lambsquarters; [4]): 0 (Herbicidal rate of 5% or less (almost no effect)); herbicidal effect on R: persian speedwell (evaluation grade 0-5) (persian speedwell; [4]): 5 (Herbicidal rate of 90% or more (almost completely withered)); herbicidal effect on L: windgrass (evaluation grade 0-5) (windgrass; [4]): 0 (Herbicidal rate of 5% or less (almost no effect)); herbicidal effect on H: barnyard grass (evaluation grade 0-5) (barnyard grass [2]; [4]): 1 (Herbicidal rate of 5% or more and less than 20%)
